Source: ChEMBL document CHEMBL5634129, “Design, synthesis, and structure-activity relationships of a novel class of quinazoline derivatives as coronavirus inhibitors” (Eur J Med Chem, 2023)
pEC50: −log10 of the molar value.

Tests used:
[1] = Cytotoxicity in human NCI-H460 cells infected with HCoV-OC43 treated for 72 hrs by CPE inhibition assay; type: toxicity, cell-based; details: read-out: TC50
[2] = Selectivity index, ratio of TC50 for human NCI-H460 cells infected with HCoV-OC43 to EC50 for HCoV-OC43 infected in human NCI-H460 cells; type: toxicity, cell-based; details: read-out: Selectivity Index
[3] = tested on: Human coronavirus OC43; assay: Antiviral activity against HCoV-OC43 infected in human NCI-H460 cells treated for 72 hrs by CPE inhibition assay; type: functional, organism-based; details: Betacoronavirus 1, NCI-H460, 72 h

Compound | CC50 at 72 h [1] [µM] | selectivity ratio [2] | pEC50 [3]
Fc1cc(Nc2ncnc3ccc(Cl)cc23)cc(C(F)(F)F)c1 | 5.14 | 2.08 | 5.61
COc1cc(/C=C/c2ccccc2)c(C(=O)O)c(O)c1CC=C(C)C | 38.5 | – | 4.65
CC(C)Oc1ccc2ncnc(Nc3cc(C(F)(F)F)cc(C(F)(F)F)c3)c2c1 | 388 | 9 | 4.37
Clc1ccc(Nc2ncnc3ccc(Cl)cc23)c(Cl)c1 | 15.4 | – | < 5.13
CCOc1ccc2nc(NCCN3CCN(C)CC3)nc(Nc3cc(C(F)(F)F)cc(C(F)(F)F)c3)c2c1 | 5.77 | 10.9 | 6.28
NC(=O)c1ncn([C@@H]2O[C@H](CO)[C@@H](O)[C@H]2O)n1 [RIBAVIRIN] | 409 | 5.2 | 4.10
CCOc1ccc2nc(N3CCN(C)CC3)nc(Nc3cc(C(F)(F)F)cc(C(F)(F)F)c3)c2c1 | 10.7 | 22.3 | 6.32
CCOC(=O)c1ccc(Nc2ncnc3ccc(Cl)cc23)cc1 | 38.5 | – | < 5.13
COc1ccc(Nc2ncnc3ccc(Cl)cc23)cc1 | 12.8 | – | < 5.13
CN(C)c1ccc(Nc2ncnc3ccc(Cl)cc23)cc1Cl | 4.28 | – | < 5.61
COc1ccc2ncnc(Nc3cc(C(F)(F)F)ccc3F)c2c1 | 15.4 | – | < 5.21
Cc1ccc2ncnc(Nc3cc(C(F)(F)F)cc(C(F)(F)F)c3)c2c1 | 96.2 | 80.9 | 5.92
O=[N+]([O-])c1ccc(Nc2ncnc3ccc(Cl)cc23)cc1Cl | 22.2 | – | < 5.61
O=[N+]([O-])c1cnc(Nc2ncnc3ccc(Cl)cc23)nc1 | 139 | – | < 4.18
COc1cc2c(Nc3cc(C(F)(F)F)cc(C(F)(F)F)c3)ncnc2cn1 | 6.93 | 24.8 | 6.55
CCOc1ccc2nc(NCC(=O)OC(C)(C)C)nc(Nc3cc(C(F)(F)F)cc(C(F)(F)F)c3)c2c1 | 18.5 | 5.2 | 5.45
COc1ccc2ncnc(Nc3cc([N+](=O)[O-])cc(C(F)(F)F)c3)c2c1 | 96.2 | 140 | 6.16
COc1ccc2ncnc(Nc3cc(F)cc(OC(F)(F)F)c3)c2c1 | 289 | 28.9 | 5.00
COc1ccc2ncnc(Nc3cc(C#N)cc(C(F)(F)F)c3)c2c1 | 240 | 501 | 6.32
N#Cc1ccc(Nc2ncnc3ccc(Cl)cc23)cc1 | 28.6 | – | < 5.13
FC(F)(F)c1cc(Nc2ncnc3ccc(I)cc23)cc(C(F)(F)F)c1 | 7.95 | 16.6 | 6.32
CCOc1ccc2nc(NCC(F)(F)F)nc(Nc3cc(C(F)(F)F)cc(C(F)(F)F)c3)c2c1 | 32.1 | 15.6 | 5.69
FC(F)(F)c1cc(Nc2ncnc3cccnc23)cc(C(F)(F)F)c1 | 240 | 7.5 | 4.49
CCN(CC)CCCC(C)Nc1ncnc2ccc(Cl)cc12 (stereo unspecified) | > 200 | – | < 3.70
COc1ccc2ncnc(NNC(=O)c3cc(C(F)(F)F)cc(C(F)(F)F)c3)c2c1 | 289 | 289 | 5.77

Compound | CC50 at 72 h [1] [µM] | selectivity ratio [2] | pEC50 [3]
CCOc1ccc2nc(NC(C)C)nc(Nc3cc(C(F)(F)F)cc(C(F)(F)F)c3)c2c1 | 8.9 | 6.2 | 5.84
FC(F)(F)c1cc(Nc2ncnc3ccccc23)cc(C(F)(F)F)c1 | 17.2 | 12.1 | 5.84
Clc1ccc(Nc2ncnc3ccc(Cl)cc23)cc1 | 12.8 | – | < 5.13
COc1ccc2ncnc(Nc3cc(C(F)(F)F)cc(C(F)(F)F)c3)c2c1 | 96.2 | – | 5.94
COc1ccc2ncnc(Nc3cccc(C#N)c3)c2c1 | 388 | – | < 4.26
Clc1ccc2ncnc(Nc3ccc(Br)cc3)c2c1 | 5.14 | – | < 5.61
Fc1ccc2ncnc(Nc3cc(C(F)(F)F)cc(C(F)(F)F)c3)c2c1 | 12.8 | 14.6 | 6.06
COc1ccc2ncnc(Sc3cc(C(F)(F)F)cc(C(F)(F)F)c3)c2c1 | 96.2 | 96.2 | < 4.26
FC(F)(F)c1cc(Nc2ncnc3ccc(Cl)cc23)cc(C(F)(F)F)c1 | 1.71 | 10.8 | 6.80
O=[N+]([O-])c1ccc(CNc2ncnc3ccc(Cl)cc23)cc1 | 167 | – | 4.26
COc1ccc2ncnc(Nc3cccc(C(F)(F)F)c3)c2c1 | 10.7 | 2.5 | 5.37
COc1ccc2ncnc(Nc3cc(F)cc(C#N)c3)c2c1 | 388 | 16.3 | 4.62
FC(F)(F)c1cc(Nc2ncnc3ncccc23)cc(C(F)(F)F)c1 | 32.1 | 6.2 | 5.29
COc1ccc2ncnc(Nc3cc(F)cc(F)c3)c2c1 | 388 | 16.3 | 4.62
CCOc1ccc2nc(NC(Cc3ccccc3)C(=O)OC(C)(C)C)nc(Nc3cc(C(F)(F)F)cc(C(F)(F)F)c3)c2c1 (stereo unspecified) | 38.5 | 2.1 | 4.73
COC(=O)c1cc(C#N)cc(Nc2ncnc3ccc(OC)cc23)c1 | > 500 | > 189 | 5.58
FC(F)(F)c1cc(Nc2ncnc3ccc(C(F)(F)F)cc23)cc(C(F)(F)F)c1 | 4.28 | 18.6 | 6.64
N#Cc1ccc(Nc2ncnc3ccc(Cl)cc23)c(Cl)c1 | 46.2 | – | < 4.65
O=[N+]([O-])c1ccc2ncnc(Nc3cc(C(F)(F)F)cc(C(F)(F)F)c3)c2c1 | 3.56 | 12.3 | 6.54
O=[N+]([O-])c1ccc(Nc2ncnc3ccc(Cl)cc23)cc1 | 46.2 | – | < 5.13
CN1CCN(CCNc2ncnc3ccc(Cl)cc23)CC1 | > 200 | – | < 4.18
FC(F)(F)c1cc(Nc2ncnc3cc(Cl)ccc23)cc(C(F)(F)F)c1 | 1.43 | 3 | 6.33
Nc1ccc2ncnc(Nc3cc(C(F)(F)F)cc(C(F)(F)F)c3)c2c1 | 10.7 | 22.3 | 6.32
COC(=O)c1cc(F)cc(Nc2ncnc3ccc(OC)cc23)c1 | 388 | – | < 4.26
CCOC(=O)c1c(/C=C/c2ccccc2)cc(OC)c(CC=C(C)C)c1O | > 200 | – | 3.86

Compound | CC50 at 72 h [1] [µM] | selectivity ratio [2] | pEC50 [3]
CCOc1ccc2ncnc(Nc3cc(C(F)(F)F)cc(C(F)(F)F)c3)c2c1 | 219 | 318 | 6.16
COC(=O)c1cc(Nc2ncnc3ccc(OC)cc23)cc(C(=O)OC)c1 | 240 | 4.3 | 4.26
COc1ccc2ncnc(N3CCN(c4cc(C(F)(F)F)cc(C(F)(F)F)c4)C(=O)C3)c2c1 | 240 | – | 5.21
CCOc1ccc2nc(NC(C)CCCN(CC)CC)nc(Nc3cc(C(F)(F)F)cc(C(F)(F)F)c3)c2c1 (stereo unspecified) | 3.56 | – | < 5.69
CCCOc1ccc2ncnc(Nc3cc(C(F)(F)F)cc(C(F)(F)F)c3)c2c1 | 388 | 1050 | 6.43
COC(=O)c1cc(Nc2ncnc3ccc(OC)cc23)cc(C(F)(F)F)c1 | 26.7 | 55.6 | 6.32
CCCCNc1nc(Nc2cc(C(F)(F)F)cc(C(F)(F)F)c2)c2cc(OCC)ccc2n1 | 10.7 | 7.5 | 5.84
Cc1ccc(Nc2ncnc3ccc(Cl)cc23)c(Cl)c1 | 28.6 | – | < 5.13
CCOC(=O)c1ccc(Nc2ncnc3ccc(Cl)cc23)c(Cl)c1 | 32 | – | < 5.13
CN(C)c1ccc(Nc2ncnc3ccc(Cl)cc23)c(Cl)c1 | 4.28 | – | < 5.61
COc1cc(/C=C/c2ccc(F)cc2)c(C(=O)O)c(O)c1CC=C(C)C | 38.5 | – | 4.89
COc1ccc2ncnc(Oc3cc(C(F)(F)F)cc(C(F)(F)F)c3)c2c1 | 240 | 240 | < 4.26
FC(F)(F)c1cc(CNc2ncnc3ccc(Cl)cc23)cc(C(F)(F)F)c1 | 388 | – | 5.00
CCOc1ccc2nc(N3CCC(F)(F)CC3)nc(Nc3cc(C(F)(F)F)cc(C(F)(F)F)c3)c2c1 | 12.8 | 2.1 | 5.21
CCOc1ccc2nc(NC3CC3)nc(Nc3cc(C(F)(F)F)cc(C(F)(F)F)c3)c2c1 | 4.81 | 15.5 | 6.51
FC(F)(F)c1cc(Nc2ncnc3ccc(Br)cc23)cc(C(F)(F)F)c1 | 2.47 | 7.1 | 6.46
Fc1ccc(Nc2ncnc3ccc(Cl)cc23)cc1 | 15.4 | – | < 5.13
COc1ccc2ncnc(Nc3cc(Cl)cc(C(F)(F)F)c3)c2c1 | 129 | 90.4 | 5.84
Clc1ccc2ncnc(Nc3ccccc3Cl)c2c1 | 96.2 | – | < 4.65
CCOc1ccc2nc(NC3CCCC3)nc(Nc3cc(C(F)(F)F)cc(C(F)(F)F)c3)c2c1 | 12.8 | – | < 5.21
O=C(O)c1ccc(Nc2ncnc3ccc(Cl)cc23)c(Cl)c1 | 96.2 | – | < 4.65
Clc1ccc2ncnc(NCCN3CCOCC3)c2c1 | > 200 | – | 3.81
CC/C=C/c1cc(OC)c(CC=C(C)C)c(O)c1C(=O)O | 46.2 | – | < 4.65
